Laboratory results taken from patent US20120309739A1, “AKT / PKB INHIBITORS” (ALMAC DISCOVERY LIMITED, priority 2009, published 2012).
Where a name gives a salt, the structure may show the parent alone.

Experiments:
Type in all cases: biochemical
AKT1 = biological target: T1, AKT1 (Homo sapiens, UniProt P31749); test: AKT Kinase Assay (IMAP fluorescent polarisation) vs AKT1; settings: activated AKT1, FAM Crosstide substrate
T1 construct: purchased SignalChem
In short: (§1)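 IMAP fluorescence-polarisation read-out (485/528 nm) of 5′FAM-Crosstide phosphorylation; IC50 fitted by non-linear regression from % inhibition against vehicle. Fourteen-point half-log compound dilutions sat 45 min at room temperature with activated isoform at linear-range amount. ATP and substrate followed for 1 h, then a 1 h binding-reagent stop.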

AKT2 = biological target: T2, AKT2 (Homo sapiens, UniProt P31751); test: AKT Kinase Assay (IMAP fluorescent polarisation) vs AKT2; settings: activated AKT2, FAM Crosstide substrate
T2 construct: purchased SignalChem
T2 sequence (P31751 whole entry): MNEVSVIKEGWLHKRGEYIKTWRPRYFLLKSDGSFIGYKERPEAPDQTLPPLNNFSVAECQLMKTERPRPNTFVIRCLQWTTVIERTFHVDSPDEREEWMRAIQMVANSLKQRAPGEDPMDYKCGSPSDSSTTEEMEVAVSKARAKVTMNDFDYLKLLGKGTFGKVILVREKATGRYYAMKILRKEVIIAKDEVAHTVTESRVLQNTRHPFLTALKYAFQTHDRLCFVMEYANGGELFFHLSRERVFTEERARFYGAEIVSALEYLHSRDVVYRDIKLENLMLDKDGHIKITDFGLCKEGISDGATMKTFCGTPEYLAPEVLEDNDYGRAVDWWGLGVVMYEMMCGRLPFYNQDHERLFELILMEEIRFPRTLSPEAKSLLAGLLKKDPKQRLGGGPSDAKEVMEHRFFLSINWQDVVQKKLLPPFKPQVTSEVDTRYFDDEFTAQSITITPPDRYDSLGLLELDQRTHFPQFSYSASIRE
In short: as §1

AKT3 = biological target: T3, AKT3 (Homo sapiens, UniProt Q9Y243); test: AKT Kinase Assay (IMAP fluorescent polarisation) vs AKT3; settings: activated AKT3, FAM Crosstide substrate
T3 construct: purchased SignalChem
T3 sequence (Q9Y243 whole entry): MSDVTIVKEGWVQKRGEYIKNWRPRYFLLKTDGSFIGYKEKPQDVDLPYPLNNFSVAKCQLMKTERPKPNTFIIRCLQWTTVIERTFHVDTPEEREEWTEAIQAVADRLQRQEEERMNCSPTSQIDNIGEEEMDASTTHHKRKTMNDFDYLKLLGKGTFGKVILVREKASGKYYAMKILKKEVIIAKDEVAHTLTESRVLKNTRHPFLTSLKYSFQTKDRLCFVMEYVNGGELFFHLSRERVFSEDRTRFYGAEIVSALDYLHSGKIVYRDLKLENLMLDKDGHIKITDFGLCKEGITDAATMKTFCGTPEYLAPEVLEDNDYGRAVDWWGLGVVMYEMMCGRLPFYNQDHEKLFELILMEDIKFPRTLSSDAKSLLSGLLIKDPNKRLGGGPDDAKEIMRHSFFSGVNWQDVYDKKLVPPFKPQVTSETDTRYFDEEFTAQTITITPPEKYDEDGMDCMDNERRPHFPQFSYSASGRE
In short: as §1

T1 sequence (P31749 whole entry): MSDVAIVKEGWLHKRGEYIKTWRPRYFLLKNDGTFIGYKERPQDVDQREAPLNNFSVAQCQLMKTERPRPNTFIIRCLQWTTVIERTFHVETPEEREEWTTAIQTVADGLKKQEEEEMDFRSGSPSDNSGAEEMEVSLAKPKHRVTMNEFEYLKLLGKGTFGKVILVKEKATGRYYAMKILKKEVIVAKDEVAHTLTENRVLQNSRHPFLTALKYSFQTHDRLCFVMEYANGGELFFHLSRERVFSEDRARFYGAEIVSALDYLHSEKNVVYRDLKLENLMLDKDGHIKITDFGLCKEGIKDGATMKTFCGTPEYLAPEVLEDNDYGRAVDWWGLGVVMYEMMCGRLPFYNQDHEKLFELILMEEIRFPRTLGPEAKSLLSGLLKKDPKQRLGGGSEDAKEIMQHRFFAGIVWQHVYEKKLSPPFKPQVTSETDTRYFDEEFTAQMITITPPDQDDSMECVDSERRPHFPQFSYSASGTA

SMILES	IC50 (AKT1) [nM]	IC50 (AKT2) [nM]	IC50 (AKT3) [nM]
COc1nc(NCCCO)nc2oc(-c3ccc(C4(N)CCC4)cc3)c(-c3ccccc3)c12 [Example 41, 3-((6-(4-(1-Aminocyclobutyl)phenyl)-4-methoxy-5-phenylfuro[2,3-d]pyrimidin-2-yl)amino)propan-1-ol]	≤ 100	100 to 1000	> 10000
COc1nc(N2CCN(C(C)=O)CC2)nc2oc(-c3ccc(C4(N)CCC4)cc3)c(-c3ccccc3)c12 [Example 45, 1-(4-(6-(4-(1-Aminocyclobutyl)phenyl)-4-methoxy-5-phenylfuro[2,3-d]pyrimidin-2-yl)piperazin-1-yl)ethanone]	100 to 1000	100 to 1000	1000 to 10000
NC1(c2ccc(-c3oc4nc(NCCO)n(CC(F)(F)F)c(=O)c4c3-c3ccccc3)cc2)CCC1 [Example 121, 6-(4-(1-Aminocyclobutyl)phenyl)-2-((2-hydroxyethyl)amino)-5-phenyl-3-(2,2,2-trifluoroethyl)furo[2,3-d]pyrimidin-4(3H)-one]	100 to 1000	≤ 100	1000 to 10000
Cn1cnc2oc(-c3ccc(C4(N)CCC4)cc3)c(-c3ccccc3)c2c1=O [Example 66, 6-(4-(1-Aminocyclobutyl)phenyl)-3-methyl-5-phenylfuro[2,3-d]pyrimidin-4(3H)-one]	100 to 1000	100 to 1000	> 10000
NC1(c2ccc(-c3oc4nc(NCCO)n(CC5CC5)c(=O)c4c3-c3ccccc3)cc2)CCC1 [Example 95, 6-(4-(1-Aminocyclobutyl)phenyl)-3-(cyclopropylmethyl)-2-((2-hydroxyethyl)amino)-5-phenylfuro[2,3-d]pyrimidin-4(3H)-one]	1000 to 10000	≤ 100	1000 to 10000
NC1(c2ccc(-c3oc4ncn(CCF)c(=O)c4c3-c3ccccc3)cc2)CCC1 [Example 103, 6-(4-(1-Aminocyclobutyl)phenyl)-3-(2-fluoroethyl)-5-phenylfuro[2,3-d]pyrimidin-4(3H)-one, HCl]	100 to 1000	≤ 100	1000 to 10000
NC1(c2ccc(-c3oc4ncn(CC(F)(F)F)c(=O)c4c3-c3ccccc3)cc2)CCC1 [Example 106, 6-(4-(1-Aminocyclobutyl)phenyl)-5-phenyl-3-(2,12-trifluoroethyl)furo[2,3-d]pyrimidin-4(3H)-one, HCl]	1000 to 10000	≤ 100	1000 to 10000
Cn1cc(C(N)=O)c2oc(-c3ccc(C4(N)CCC4)cc3)c(-c3ccccc3)c2c1=O [Example 117, 2-(4-(1-Aminocyclobutyl)phenyl)-5-methyl-4-oxo-3-phenyl-4,5-dihydrofuro[3,2-c]pyridine-7-carboxamide]	100 to 1000	100 to 1000	1000 to 10000
NC1(c2ccc(-c3oc4nc(NCCO)nc(NCCO)c4c3-c3ccccc3)cc2)CCC1 [Example 77, 2,2′-((6-(4-(1-Aminocyclobutyl)phenyl)-5-phenylfuro[2,3-d]pyrimidine-2,4-diyl)bis(azanediyl))diethanol]	100 to 1000	100 to 1000	> 10000
COc1nc(NCCO)nc2oc(-c3ccc(C4(N)CCC4)cc3)c(-c3ccccc3)c12 [Example 38, 2-((6-(4-(1-Aminocyclobutyl)phenyl)-4-methoxy-5-phenylfuro[2,3-d]pyrimidin-2-yl)amino)ethanol]	≤ 100	100 to 1000	> 10000
NC1(c2ccc(-c3oc4nc(N5CCOCC5)ncc4c3-c3ccccc3)cc2)CCC1 [Example 52, 1-(4-(2-Morpholino-5-phenylfuro[2,3-d]pyrimidin-6-yl)phenyl)cyclobutanamine]	1000 to 10000	100 to 1000	> 10000
Cn1ccc2oc(-c3ccc(C4(N)CCC4)cc3)c(-c3ccccc3)c2c1=O [Example 4, 2-(4-(1-Aminocyclobutyl)phenyl)-5-methyl-3-phenylfuro[3,2-c]pyridin-4(5H)-one]	100 to 1000	1000 to 10000	> 10000
C[C@@H](CO)Nc1nc2oc(-c3ccc(C4(N)CCC4)cc3)c(-c3ccccc3)c2c(=O)n1C [Example 98, (S)-6-(4-(1-Aminocyclobutyl)phenyl)-2-(1-hydroxypropan-2-ylamino)-3-methyl-5-phenylfuro[2,3-d]pyrimidin-4(3H)-one]	100 to 1000	100 to 1000	> 10000
Cn1cc(-c2ccn[nH]2)c2oc(-c3ccc(C4(N)CCC4)cc3)c(-c3ccccc3)c2c1=O [Example 116, 2-(4-(1-Aminocyclobutyl)phenyl)-5-methyl-3-phenyl-7-(1H-pyrazol-5-yl)furo[3,2-c]pyridin-4(5H)-one]	≤ 100	100 to 1000	> 10000
NC1(c2ccc(-c3oc4ncc(-c5ccn[nH]5)nc4c3-c3ccccc3)cc2)CCC1 [Example 144, 1-(4-(7-Phenyl-2-(1H-pyrazol-5-yl)furo[2,3-b]pyrazin-6-yl)phenyl)cyclobutanamine]	1000 to 10000	1000 to 10000	> 10000
CC(=O)Nc1cccc(-c2cnc3oc(-c4ccc(C5(N)CCC5)cc4)c(-c4ccccc4)c3n2)c1 [Example 151, N-(3-(6-(4-(1-Aminocyclobutyl)phenyl)-7-phenylfuro[2,3-b]pyrazin-2-yl)phenyl)acetamide, HCl]	1000 to 10000	1000 to 10000	> 10000
NC1(c2ccc(-c3oc4ncc(Br)cc4c3-c3ccccc3)cc2)CCC1 [Example 11, 1-(4-(5-Bromo-3-phenylfuro[2,3-b]pyridin-2-yl)phenyl)cyclobutanamine.HCl]	> 10000	> 10000	> 10000
NC1(c2ccc(-c3oc4ncc(CO)nc4c3-c3ccccc3)cc2)CCC1 [Example 145, (6-(4-(1-Aminocyclobutyl)phenyl)-7-phenylfuro[2,3-b]pyrazin-2-yl)methanol]	1000 to 10000	1000 to 10000	> 10000
COc1nc(N2CCC(O)CC2)nc2oc(-c3ccc(C4(N)CCC4)cc3)c(-c3ccccc3)c12 [Example 40, 1-(6-(4-(1-Aminocyclobutyl)phenyl)-4-methoxy-5-phenylfuro[2,3-d]pyrimidin-2-yl)piperidin-4-ol]	100 to 1000	100 to 1000	> 10000
CNc1nc2oc(-c3ccc(C4(N)CCC4)cc3)c(-c3ccccc3)c2c(=O)n1CCOC [Example 69, 6-(4-(1-Aminocyclobutyl)phenyl)-3-(2-methoxyethyl)-2-(methylamino)-5-phenylfuro[2,3-d]pyrimidin-4(3H)-one, HCl]	1000 to 10000	100 to 1000	> 10000
N#Cc1cccc2c(-c3ccccc3)c(-c3ccc(C4(N)CNC4)cc3)oc12 [Example 30, 2-(4-(3-Aminoazetidin-3-yl)phenyl)-3-phenylbenzofuran-7-carbonitrile]	100 to 1000	> 10000	> 10000
NC1CCN(c2ncc3c(-c4ccccc4)c(-c4ccc(C5(N)CCC5)cc4)oc3n2)CC1 [Example 50, 1-(6-(4-(1-Aminocyclobutyl)phenyl)-5-phenylfuro[2,3-d]pyrimidin-2-yl)piperidin-4-amine]	1000 to 10000	100 to 1000	> 10000
COC(=O)c1cn(C)c(=O)c2c(-c3ccccc3)c(-c3ccc(C4(N)CCC4)cc3)oc12 [Example 118, Methyl 2-(4-(1-aminocyclobutyl)phenyl)-5-methyl-4-oxo-3-phenyl-4,5-dihydrofuro[3,2-c]pyridine-7-carboxylate]	≤ 100	100 to 1000	1000 to 10000
Cn1c(=O)[nH]c2oc(-c3ccc(C4(N)CCC4)cc3)c(-c3ccccc3)c2c1=O [Example 124, 6-(4-(1-Aminocyclobutyl)phenyl)-3-methyl-5-phenylfuro[2,3-d]pyrimidine-2,4(1H,3H)-dione hydrochloride]	100 to 1000	100 to 1000	> 10000
NC1(c2ccc(-c3oc4c(=O)[nH]ccc4c3-c3ccccc3)cc2)CCC1 [Example 128, 2-(4-(1-Aminocyclobutyl)phenyl)-3-phenylfuro[2,3-d]pyridin-7(6H)-one]	100 to 1000	1000 to 10000	1000 to 10000
CCNc1nc2oc(-c3ccc(C4(N)CCC4)cc3)c(-c3ccccc3)c2c(=O)n1C [Example 88, 6-(4-(1-Aminocyclobutyl)phenyl)-2-(ethylamino)-3-methyl-5-phenylfuro[2,3-d]pyrimidin-4(3H)-one, HCl]	100 to 1000	≤ 100	1000 to 10000
N#Cc1ccc2c(-c3ccccc3)c(-c3ccc(C4(N)CCC4)cc3)oc2c1 [Example 25, 2-(4-(1-Aminocyclobutyl)phenyl)-3-phenylbenzofuran-6-carbonitrile]	1000 to 10000	1000 to 10000	> 10000
COc1nc(-n2ccnc2)nc2oc(-c3ccc(C4(N)CCC4)cc3)c(-c3ccccc3)c12 [Example 44, 1-(4-(2-(1H-Imidazol-1-yl)-4-methoxy-5-phenylfuro[2,3-d]pyrimidin-6-yl)phenyl)cyclobutanamine]	≤ 100	100 to 1000	> 10000
NC1(c2ccc(-c3sc4nc[nH]c(=O)c4c3-c3ccccc3)cc2)CCC1 [Example 16, 6-(4-(1-Aminocyclobutyl)phenyl)-5-phenylthieno[2,3-d]pyrimidin-4(3H)-one]	1000 to 10000	100 to 1000	1000 to 10000
NC1(c2ccc(-c3oc4ncn(CC(F)F)c(=O)c4c3-c3ccccc3)cc2)CCC1 [Example 108, 6-(4-(1-Aminocyclobutyl)phenyl)-3-(2,2-difluoroethyl)-5-phenylfuro[2,3-d]pyrimidin-4(3H)-one]	1000 to 10000	≤ 100	1000 to 10000
